Read-outs that look alike come from different tables or passages of the source.
Tests used:
[1] = diet-induced obesity model in mice (high fat/high fructose diet): weight gain and blood glucose; format: in vivo, C57BL/6 mice; details: 20, 100 or 500 μg/kg s.c. on alternate days
Protocol: The accompanying figures show the obesity-deterring efficacy of ShK-186 in the diet-induced obesity model in C57BL/J mice (diet composed of 21% fat+60% fructose-water). 8 week old C57BL/6 mice were purchased from Harlan Co. (Indianapolis, Ind.). They were fed a specialized high fat diet (#TD88137; 21% fat) purchased from Harlan Co. (Indianapolis, Ind.), and they received a 60% fructose solution to drink. The mice were administered vehicle (P6N) or ShK-186 (20, 100 or 500 μg/kg) by subcutaneous injections on alternate days. Animals were weighed on alternate days. Blood glucose levels were monitored every 6 days by tail-vein sampling using an Accu-Chek compact glucometer from Roche. The animal experimental protocol was approved by the Institutional Animal Care and Use Committee at University of California, Irvine.
All mice received the high fat/high fructose diet throughout the trial. They received vehicle (P6N) or ShK-186 (20, 100 or 500 μg/kg) on alternate days by subcutaneous injection. The weight is normalized to the average weight at the start of the study. All the mice in this study were males. Using repeated measures ANOVA, the p value <0.0001 for all the ShK-186 doses.

[2] = system: brown adipose tissue; assay: PET scan, 18FDG uptake by brown adipose tissue; format: in vivo, mice
Protocol: (§1) ^18F-FDG was purchased from PETNET. Mice were fasted overnight before CT or PET scan. For PET scan animals were injected with 0.1-0.2 mCi of ^18F-FDG in sterile saline. Approximately, 0.02 to 0.05 ml was administered intravenously (tail vein) under 2% Isoflurane and animal was allowed to remain awake for 60 mins in their cages to allow distribution and uptake of ^18F-FDG. During the scan 2% isoflurane was used and the mouse was laid in the supine position on the scanner. All PET acquisitions were performed with an Inveon (Siemens Medical Solutions) preclinical PET scanner. PET data was acquired for 30 min. When used with PET scanner CT data was obtained immediately after PET imaging without changing the position of the animal. PET images were corrected for attenuation, scatter, randoms, and dead time. Images were reconstructed as 128×128 matrices using a fast MAP algorithm with a smoothing factor of 0.1. CT HU of BAT and WAT was obtained by calibrating the CT data using linear interpolation of water CT Density (CT HU=0) and air CT density (CT HU=−1000). After the scan procedure, animals were allowed to recover from anesthesia, placed in their cages and monitored for normal recovery.
(§2) All scanning data was acquired in full list mode and sorted into a single frame, 3 dimensional sinogram, which was rebinned using a Fourier rebinning algorithm. […]

[3] = CLAMS metabolic cages: feeding, drinking, RER, energy expenditure; format: in vivo, mice
Text: FIGS. 4A through 4D show feeding and drinking patterns of mice analyzed in negative-flow CLAMS (Comprehensive Lab Animal Monitoring system) metabolic cages. All the animals were habituated with the high fat/high fructose diet for at least 7 days prior to the metabolic cage studies. All animals were placed individually in each metabolic cage and habituated for two days under normal 12 hr. light-dark cycle.
Mice were acclimated for 2 days in the metabolic cages before the measurements were made.
FIGS. 5A through 5D show Respiratory Exchange Ratio (RER) and energy expenditure in vehicle controls (n-2) and ShK-186-treated mice (n=2). RER of 0.70 is when a subject is metabolizing pure fat, whereas RER of 1.0 is when a subject is metabolizing pure carbohydrate.

[4] = system: skeletal muscle; assay: PET imaging, 18FDG uptake by skeletal muscle; format: in vivo, mice; details: FIG. 7
Protocol: as §1, §2

[5] = system: white adipose tissue; assay: CT scan of white adipose tissue in the diet-induced obesity model; format: in vivo, C57BL/6 mice; details: 500 μg/kg; after 45 days on high fat/high fructose diet; vs vehicle; p=0.000708; FIG. 3A/3B
Protocol: Mice were fasted overnight before CT scans. All CT acquisitions were performed with an Inveon (Siemens Medical Solutions) preclinical CT scanner. During the scan 2% isoflurane was used and the mouse was laid in the supine position on the scanner. Images were reconstructed as 128×128 matrices using a fast MAP algorithm with a smoothing factor of 0.1. CT HU of WAT was obtained by calibrating the CT data using linear interpolation of water CT Density (CT HU=0) and air CT density (CT HU=−1000). After the scan procedure, animals were allowed to recover from anesthesia, placed in their cages and monitored for normal recovery. All scanning data was acquired in full list mode and sorted into a single frame, 3 dimensional sinogram, which was rebinned using a Fourier rebinning algorithm. The images were reconstructed using 2 dimensional filter back projection using a Hanning Filter with a Nyquist cut off at 0.5, and corrected for attenuation using the Co-57 attenuation scan data. All CT Data analysis was done using PMOD 3.0 software.

[6] = system: brown adipose tissue cells; details: potassium channel blockade; cited from earlier work
[7] = system: brown fat; details: man; 1 mg/kg; cited from earlier work
[8] = system: brown fat; details: rats; 5 mg/kg body wt; cited from earlier work
[9] = n=2, vs vehicle controls, FIG. 5A-5D

## p-phospho-Tyr-AEEAc-Arg-Ser-Cys-Ile-Asp-Thr-Ile-Pro-Lys-Ser-Arg-Cys-Thr-Ala-Phe-Gln-Cys-Lys-His-Ser-Met-Lys-Tyr-Arg-Leu-Ser-Phe-Cys-Arg-Lys-Thr-Cys-Gly-Thr-Cys [ShK-186]
[1]; measured every 6 days, FIG. 1B
  blood glucose levels: without changing blood glucose levels
[1]; vs vehicle, dose-dependent, p<0.0001 for all doses, FIG. 1A
  weight gain: significantly reduced weight gain
[2]; ShK-186 at 100 and 500 μg/kg, FIG. 6A
  18FDG uptake by brown adipose tissue: induces ^18FDG-uptake by brown adipose tissue
[3]; given at onset of the measuring phase, controls feed and drink in dark cycle only, p<0.05 after first 24 hrs, FIG. 4A-4D
  feeding and drinking pattern: feed and drink during both dark and light cycles
[3]; n=2, especially during the light cycle, FIG. 5A-5D
  Respiratory Exchange Ratio (RER), substrate metabolized: metabolize more carbohydrate than fat
[3]; [9]
  energy expenditure during the day: greater energy expenditure during the day
  energy expenditure during the night: roughly equivalent energy expenditure during the night
[4]; ShK-186 at 20, 100 and 500 μg/kg
  18FDG uptake by skeletal muscle: increased ^18FDG uptake by skeletal muscle
[5]
  volume of white adipose tissue: significantly reduced the volume of white adipose tissue

## CC[N+](CC)(CC)CC [tetraethylammonium]
[6]
  metabolic response of brown adipose tissue cells to adrenergic stimulation: does not alter the metabolic response of brown adipose tissue cells to adrenergic stimulation

## CC(C)NCC(O)COc1cccc2ccccc12 (centres unmarked) [propranolol, reference compound]
[2]; propranolol 5 m/kg, FIG. 6B
  inhibition of 18FDG uptake by brown adipose tissue: inhibited
[4]; propranolol 5 mg/kg
  inhibition of ShK-186-increased 18FDG uptake by skeletal muscle: did not inhibit this uptake
[7]
  18-fluoro-deoxyglucose uptake into brown fat: has the same effect
[8]
  18-fluoro-deoxyglucose uptake into brown fat: eliminates ^18-fluoro-deoxyglucose uptake into brown fat

From patent publication US9878006B2, “Treatment of obesity and obesity related disorders by pharmalogical targeting of Kv1.3 potassium channels” (The Regents of the University of California, priority 2011, dated 2018)
